Results from patent US9353081B2, “Bicyclic dihydroquinoline-2-one derivatives” (Hoffmann-La Roche Inc., priority 2011, dated 2016).
pEC50: −log10 of the molar value.

Experiments:
human CYP11B1 = human CYP11B1 (Homo sapiens (Human), UniProt P15538); experiment: G-402 cellular enzyme assay, human CYP11B1 (cortisol release, HTRF); format: cell-based; settings: G-402 cells expressing human CYP11B1; 1 μM Deoxycortisol
From the text: (§1) Specifically we developed stable G-402 cells expressing ectopically human CYP11B1, human CYP11B2, human CYP11A1, cynomolgus CYP11B1 or cynomolgus CYP11B2 enzyme activity.
(§2) The expression plasmids contains the ORF for either human/cyno CYP11B1 or CYP11B2 under the control of a suitable promoter (CMV-promoter) and a suitable resistance marker (neomycin). Using standard techniques the expression plasmid is transfected into G-402 cells and these cells are then selected for expressing the given resistance markers. Individual cell-clones are then selected and assessed for displaying the desired enzymatic activity using 11-Deoxycorticosterone (Cyp11B2) or 11-Deoxycortisol (Cyp11B1) as a substrate.
(§3) For assaying enzymatic activity, cells were plated onto 96 well plates and incubated for 16 h. An aliquot of the supernatant is then transferred and analyzed for the concentration of the expected product (Aldosterone for CYP11B2; Cortisol for CYP11B1). The concentrations of these steroids can be determined using HTRF assays from CisBio analyzing either Aldosterone or Cortisol.
(§4) Inhibition of the release of produced steroids can be used as a measure of the respective enzyme inhibition by test compounds added during the cellular enzyme assay. The dose dependent inhibition of enzymatic activity by a compound is calculated by means of plotting added inhibitor concentrations x-axes) vs. measured steroid/product level (y-axes). The inhibition is then calculated by fitting the following 4-parameter sigmoidal function (Morgan-Mercer-Flodin (MMF) model) to the raw data points using the least squares method:
(§5) [formula] wherein, A is the maximum y value, B is the EC50 factor determined using XLFit, C is the minimum y value and D is the slope value.
(§6) EC50 values for compounds claimed herein were tested with the G402-based assay system described. Cyp11B2 enzyme activity was tested in presence of 1 μM Deoxycorticosterone and variable amounts of inhibitors; Cyp11B1 enzyme activity was tested in presence of 1 μM Deoxycortisol and variable amounts of inhibitors.

human CYP11B2 = human CYP11B2 (Homo sapiens (Human), UniProt P19099); experiment: G-402 cellular enzyme assay, human CYP11B2 (aldosterone release, HTRF); format: cell-based; settings: G-402 cells expressing human CYP11B2; 1 μM Deoxycorticosterone
From the text: as §1, §2, §3, §4, §5, §6

human CYP11B2, sequence (P19099 25-503): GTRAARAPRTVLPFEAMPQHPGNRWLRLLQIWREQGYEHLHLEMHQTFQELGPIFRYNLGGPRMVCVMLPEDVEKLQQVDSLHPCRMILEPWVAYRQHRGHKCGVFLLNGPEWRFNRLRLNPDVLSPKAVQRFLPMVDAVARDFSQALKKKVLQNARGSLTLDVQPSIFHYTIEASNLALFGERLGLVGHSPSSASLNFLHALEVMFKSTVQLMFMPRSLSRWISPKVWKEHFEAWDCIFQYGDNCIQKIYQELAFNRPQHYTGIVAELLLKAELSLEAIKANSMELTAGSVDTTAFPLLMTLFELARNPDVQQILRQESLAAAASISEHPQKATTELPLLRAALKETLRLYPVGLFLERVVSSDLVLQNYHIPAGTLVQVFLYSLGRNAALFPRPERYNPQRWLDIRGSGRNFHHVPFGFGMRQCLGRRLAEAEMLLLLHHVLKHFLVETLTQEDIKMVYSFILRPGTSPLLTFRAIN
human CYP11B1, sequence (P15538 25-503): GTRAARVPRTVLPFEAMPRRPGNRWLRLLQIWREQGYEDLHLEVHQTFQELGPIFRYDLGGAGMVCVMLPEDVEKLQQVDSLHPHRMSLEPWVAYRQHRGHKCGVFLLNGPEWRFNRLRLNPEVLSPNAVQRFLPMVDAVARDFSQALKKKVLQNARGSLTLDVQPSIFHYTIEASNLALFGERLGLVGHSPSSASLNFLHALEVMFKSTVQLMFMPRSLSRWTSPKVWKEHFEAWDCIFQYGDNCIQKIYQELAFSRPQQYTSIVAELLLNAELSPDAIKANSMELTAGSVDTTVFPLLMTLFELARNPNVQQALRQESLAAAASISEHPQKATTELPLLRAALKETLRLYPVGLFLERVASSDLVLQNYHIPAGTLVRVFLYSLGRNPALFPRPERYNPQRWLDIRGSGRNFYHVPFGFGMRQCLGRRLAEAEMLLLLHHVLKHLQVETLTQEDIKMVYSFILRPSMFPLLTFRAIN

Compound	pEC50 (human CYP11B1)	pEC50 (human CYP11B2)
CCS(=O)(=O)NC1CCCc2c(-c3cc(F)c4c(c3)CCC(=O)N4C)cncc21 (racemic) [Example 36, (rac)-Ethanesulfonic acid [4-(8-fluoro-1-methyl-2-oxo-1,2,3,4-tetrahydro-quinolin-6-yl)-5,6,7,8-tetrahydro-isoquinolin-8-yl]-amide]	4.68	6.62
CCC(=O)NC1CCCc2c(-c3cc(Cl)c4c(c3)CCC(=O)N4C)cncc21 (single isomer, unassigned; (-)) [Example 40, (−)-N—[(S or R)-4-(8-Chloro-1-methyl-2-oxo-1,2,3,4-tetrahydro-quinolin-6-yl)-5,6,7,8-tetrahydro-isoquinolin-8-yl]-propionamide]		6.90
CCC(=O)NC1CCc2c(-c3cc(Cl)c4c(c3)CCC(=O)N4C)cncc21 (single isomer, unassigned; (-)) [Example 59, (−)-(S or R)—N-(4-(8-Chloro-1-methyl-2-oxo-1,2,3,4-tetrahydroquinolin-6-yl)-6,7-dihydro-5H-cyclopenta[c]pyridin-7-yl)propionamide]		5.48
CCS(=O)(=O)NC1CCCc2c(-c3cc(Cl)c4c(c3)CCC(=O)N4C)cncc21 (single isomer, unassigned; (-)) [Example 39, (−)-Ethanesulfonic acid [(S or R)-4-(8-chloro-1-methyl-2-oxo-1,2,3,4-tetrahydro-quinolin-6-yl)-5,6,7,8-tetrahydro-isoquinolin-8-yl]-amide]		6.89
C[C@H](O)C(=O)NC1CCCc2c(-c3ccc4c(c3)CCC(=O)N4C)cncc21 (stereo partly drawn) [Example 17, (2S)-2-Hydroxy-N-((4R,S)-4-(1-methyl-2-oxo-1,2,3,4-tetrahydroquinolin-6-yl)-5,6,7,8-tetrahydroisoquinolin-8-yl)propanamide]	6.05	7.50
CCC(=O)N[C@@H]1c2cncc(-c3cc4c(cc3F)N(C)C(=O)CC4)c2CC[C@@H]1C (single isomer, unassigned) [Example 43, (−)-N-[(7S,8S or 7R,8R)-4-(7-Fluoro-1-methyl-2-oxo-1,2,3,4-tetrahydro-quinolin-6-yl)-7-methyl-5,6,7,8-tetrahydro-isoquinolin-8-yl]-propionamide]	4.49	6.34
CCS(=O)(=O)NC1CCCc2c(-c3ccc4c(c3)CCC(=O)N4C)cncc21 (single isomer, unassigned; (-)) [Example 5, (−)-(R or S)—N-(4-(1-Methyl-2-oxo-1,2,3,4-tetrahydroquinolin-6-yl)-5,6,7,8-tetrahydroisoquinolin-8-yl)ethanesulfonamide]	4.93	5.89
CCC(=O)NC1CCCc2c(-c3cc4c(cc3F)N(C)C(=O)CC4)cncc21 (racemic) [Example 28, (rac)-N-[4-(7-Fluoro-1-methyl-2-oxo-1,2,3,4-tetrahydro-quinolin-6-yl)-5,6,7,8-tetrahydroisoquinolin-8-yl]-propionamide]	5.17	7.13
CCC(=O)NC1CCc2c(-c3cc(Cl)c4c(c3)CCC(=O)N4C)cncc21 (racemic) [Example 58, (rac)-N-(4-(8-Chloro-1-methyl-2-oxo-1,2,3,4-tetrahydroquinolin-6-yl)-6,7-dihydro-5H-cyclopenta[c]pyridin-7-yl)propionamide]	5.12	7.35
CCS(=O)(=O)NC1CCCc2c(-c3cc(Cl)c4c(c3)CCC(=O)N4C)cncc21 (racemic) [Example 37, (rac)-Ethanesulfonic acid [4-(8-chloro-1-methyl-2-oxo-1,2,3,4-tetrahydro-quinolin-6-yl)-5,6,7,8-tetrahydro-isoquinolin-8-yl]-amide]	4.87	6.70
CN1C(=O)CCc2cc(-c3cncc4c3CCC[C@H]4N)ccc21 [Example 61, (R)-6-(8-Amino-5,6,7,8-tetrahydroisoquinolin-4-yl)-1-methyl-3,4-dihydroquinolin-2(1H)-one]	6.35	8.25
CCC(=O)N[C@@H]1c2cncc(-c3cc4c(cc3F)N(C)C(=O)CC4)c2CC[C@@H]1F (single isomer, unassigned) [Example 57, (−)-N-[(7S,8R or 7R,8S)-7-Fluoro-4-(7-fluoro-1-methyl-2-oxo-1,2,3,4-tetrahydro-quinolin-6-yl)-5,6,7,8-tetrahydro-isoquinolin-8-yl]-propionamide]	4.69	6.05
CCC(=O)NC1CCCc2c(-c3ccc4c(c3)CCC(=O)N4C)cncc21 (single isomer, unassigned; (-)) [Example 2, (−)-(R or S)—N-(4-(1-Methyl-2-oxo-1,2,3,4-tetrahydroquinolin-6-yl)-5,6,7,8-tetrahydroisoquinolin-8-yl)propionamide]	4.92	5.99
C[C@@H](O)C(=O)NC1CCCc2c(-c3ccc4c(c3)CCC(=O)N4C)cncc21 (stereo partly drawn) [Example 16, (2R)-2-Hydroxy-N-((4R,S)-4-(1-methyl-2-oxo-1,2,3,4-tetrahydroquinolin-6-yl)-5,6,7,8-tetrahydroisoquinolin-8-yl)propanamide]	5.98	7.51
CN1C(=O)CCc2cc(-c3cncc4c3CCC[C@H]4NC(=O)C3CC3)ccc21 [Example 64, Cyclopropanecarboxylic acid [(R)-4-(1-methyl-2-oxo-1,2,3,4-tetrahydro-quinolin-6-yl)-5,6,7,8-tetrahydro-isoquinolin-8-yl]-amide]	5.63	7.34
CN1C(=O)CCc2cc(-c3cncc4c3CCCC4O)ccc21 (racemic) [Example 67, (rac)-6-(8-Hydroxy-5,6,7,8-tetrahydro-isoquinolin-4-yl)-1-methyl-3,4-dihydroquinolin-2(1H)-one]	6.69	8.33
C[C@H](O)C(=O)NC1CCCc2c(-c3ccc4c(c3)CCC(=O)N4C)cncc21 (single isomer, unassigned; (+)) [Example 21, (+)-(2S)-2-hydroxy-N-((4R or 4S)-4-(1-methyl-2-oxo-1,2,3,4-tetrahydroquinolin-6-yl)-5,6,7,8-tetrahydroisoquinolin-8-yl)propanamide]	6.22	7.55
C[C@@H](O)C(=O)NC1CCCc2c(-c3ccc4c(c3)CCC(=O)N4C)cncc21 (single isomer, unassigned; (+)) [Example 18, (+)-(2R)-2-Hydroxy-N-((4R or 4S)-4-(1-methyl-2-oxo-1,2,3,4-tetrahydroquinolin-6-yl)-5,6,7,8-tetrahydroisoquinolin-8-yl)propanamide]	5.83	7.55
CN1C(=O)CCc2cc(-c3cncc4c3CCC[C@H]4NS(C)(=O)=O)ccc21 [Example 65, N—[(R)-4-(1-Methyl-2-oxo-1,2,3,4-tetrahydro-quinolin-6-yl)-5,6,7,8-tetrahydro-isoquinolin-8-yl]-methanesulfonamide]	5.72	7.77
CCC(=O)NC1CCc2c(-c3cc4c(cc3F)N(C)C(=O)CC4)cncc21 (single isomer, unassigned; (-)) [Example 23, (−)-(S or R)—N-(4-(7-Fluoro-1-methyl-2-oxo-1,2,3,4-tetrahydroquinolin-6-yl)-6,7-dihydro-5H-cyclopenta[c]pyridin-7-yl)propionamide]		5.86
CCS(=O)(=O)NC1CCc2c(-c3cc4c(cc3F)N(C)C(=O)CC4)cncc21 (single isomer, unassigned; (-)) [Example 26, (−)-(S or R)—N-(4-(7-Fluoro-1-methyl-2-oxo-1,2,3,4-tetrahydroquinolin-6-yl)-6,7-dihydro-5H-cyclopenta[c]pyridin-7-yl)ethanesulfonamide]		5.34
CCC(=O)NC1CCCc2c(-c3cc4c(cc3Cl)N(C)C(=O)CC4)cncc21 (single isomer, unassigned) [Example 35, N—[(R or S)-4-(7-Chloro-1-methyl-2-oxo-1,2,3,4-tetrahydro-quinolin-6-yl)-5,6,7,8-tetrahydro-isoquinolin-8-yl]-propionamide]		5.75
CCC(=O)N[C@@H]1c2cncc(-c3ccc4c(c3)CCC(=O)N4C)c2CC[C@H]1F (single isomer, unassigned) [Example 50, (−)-N-[(7R,8R or 7S,8S)-7-Fluoro-4-(1-methyl-2-oxo-1,2,3,4-tetrahydro-quinolin-6-yl)-5,6,7,8-tetrahydro-isoquinolin-8-yl]-propionamide]		5.36
CCC(=O)N[C@@H]1c2cncc(-c3ccc4c(c3)CCC(=O)N4C)c2CC[C@H]1C (single isomer, unassigned) [Example 47, (−)-N-[(7R,8S or 7S,8R)-7-Methyl-4-(1-methyl-2-oxo-1,2,3,4-tetrahydro-quinolin-6-yl)-5,6,7,8-tetrahydro-isoquinolin-8-yl]-propionamide]		5.74
